Source: patent publication US9248111B2, “Therapeutic approaches for treating parkinson's disease” (PHARNEXT, priority 2011, dated 2016)
Entries after “also recorded” stand apart in the source; their conditions may differ.

What was measured:
[1] = tested on: dopaminergic neuronal terminals in the left striatum; test: [3H]-mazindol labelling of dopaminergic terminals in striatum after 6-OHDA lesion; assay type: in vivo, rat; conditions: FIG. 16B: BCL-ACP 3.75 and 0.25 mg/kg bid; L-DOPA 8 mg/kg with benserazide 12.5 mg/kg; vs non-treated 6-OHDA rats
Description: (§1) Wistar rats (5 weeks) were used after an acclimatization period of at least 5 days. Surgery was performed under ketamine (50 mg/kg) and xylazine (10 mg/kg). Animals received an unilateral injection of 12 μg of 6-OHDA (sigma Aldrich) dissolved in 6 μl of 0.9% sterile NaCl containing 0.1% ascorbic acid (to protect 6-OHDA from oxidation), at the flow rate of 1 μl/min, in the left substantia nigra pars compacta. The stereotaxic coordinates of the injection site will be: anteroposterior+2.2 mm, lateral 2.0 mm, dorsoventral+3 mm with the incisor bar at +5.0 mm above the interaural plane, according to the rat stereotaxic atlas by De Groot (1959).
(§2) The first administration of treatment or vehicle has been performed the day before the stereotaxic injection of 6-OHDA (for the lesion groups) or vehicle and all along the 15 days preceding the behavioral tests. […] During the study and for each animal, the volume of per os administrations was determined on the basis of the mean body weight of the animals of the corresponding group. Body weights will be determined twice a week and the volume of administration will thus be adjusted consequently. […]
The loss of DA terminals in the striatum was assessed as an index of the extent of the dopaminergic denervation by analysis of [^3H]-mazindol binding to dopamine uptake sites. […]

[2] = tested on: dopaminergic neuron cell bodies of subtantia nigra pars compacta; test: Quantification of TH positive neurons in substantia nigra after 6-OHDA lesion; assay type: in vivo, rat; conditions: FIG. 16A: BCL-ACP 3.75 and 0.25 mg/kg bid; L-DOPA 8 mg/kg with benserazide 12.5 mg/kg; vs non-treated 6-OHDA rats
Description: as §1, §2
TH positive neurons were counted in a set of the three sections centered on the track of the 6-OHDA injection needle in the SN, covering almost all the SN. […] Cell counted is done using a microscope connected to a computer image analysis system by a CDD camera.

With N[C@@H](Cc1ccc(O)c(O)c1)C(=O)O [L-DOPA, levodopa] the “density of dopaminergic neuronal terminals in the left striatum (OD of [3H]-mazindol labelling)” value [1] was “failed to inhibit; also recorded: not observed” and the “number of dopaminergic neurons in the left (intoxicated) part of SN” value [2] was “failed to inhibit; also recorded: not observed”.
